Laboratory results reported in PubChem BioAssay AID743231 (The Scripps Research Institute Molecular Screening Center, 2013).
Calls of active or inactive are those of the source. The limit is not given here; nearly all actives have IC50 up to about 7.9 µM.

Molecular target: Trace amine-associated receptor 1 (Homo sapiens) (UniProt Q96RJ0)
Experiment: TAAR1 desensitization potency of agonists, dose response, counter-screen for TAAR1 agonist project, cell-based, fluorescence, late stage (AID 743231)
Conditions: hTAAR1 cells

Trace amine-associated receptor 1 (Homo sapiens), sequence (Q96RJ0 whole entry, looked up): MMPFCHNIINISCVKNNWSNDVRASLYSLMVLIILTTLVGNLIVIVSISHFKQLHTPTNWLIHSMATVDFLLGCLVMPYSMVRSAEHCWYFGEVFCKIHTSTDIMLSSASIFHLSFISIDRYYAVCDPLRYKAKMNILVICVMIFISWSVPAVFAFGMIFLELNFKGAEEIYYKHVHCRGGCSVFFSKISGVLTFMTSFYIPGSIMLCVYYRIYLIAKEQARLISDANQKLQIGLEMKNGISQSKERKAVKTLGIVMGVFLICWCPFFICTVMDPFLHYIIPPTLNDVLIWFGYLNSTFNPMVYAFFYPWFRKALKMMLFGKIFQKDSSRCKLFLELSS

## OCCNc1nc(Nc2ccc(O)cc2)nc2ccccc12
  IC50: 1860 nM

## CCOC(=O)C(NC(C)=O)(N1CCc2ccccc2C1)C(F)(F)F (stereo not given)
  IC50: 639 nM

## Nc1nc(Nc2cccc(F)c2)nc2ccccc12
  IC50: 1280 nM

## O=C(CCN1CCc2ccccc2CC1)c1ccc2c(c1)OCCO2
  IC50: 1010 nM

## O=C(Nc1cccnc1)Nc1cccc(F)c1
  IC50: 6520 nM

## Nc1nc(Nc2ccccc2)nc2ccccc12
  IC50: 642 nM

## O=C(Nc1cccc2ccccc12)N1CCc2ccccc2C1
  IC50: > 29900 nM (inactive)

## CC1(C)CCCN(C(=O)c2coc(=O)c(Br)c2)C1
  IC50: 2550 nM

## c1ccc2c(c1)CCN(c1nc3cc4c(cc3s1)OCO4)C2
  IC50: 2250 nM

## O=C(Nc1ccncc1)Nc1ccc(F)cc1
  IC50: 2430 nM

## O=C(CCN1CCC(c2ccccc2)C1)c1ccc2c(c1)OCCO2 (stereo not given)
  IC50: 856 nM

## O=C(CCCCl)N1CCc2[nH]c3ccccc3c2C1
  IC50: 1090 nM

## COc1cc(C(=O)CCN2CCC(c3ccccc3)C2)cc(OC)c1OC (stereo not given)
  IC50: 1520 nM

## NC(N)=NN=Cc1c(Cl)cccc1Cl
  IC50: 770 nM

## Cc1cc(C)n(C(CC(=O)N2CCc3ccccc3C2)C(=O)O)n1 (stereo not given)
  IC50: 1220 nM

## c1ccc2c3c([nH]c2c1)CCNC3
  IC50: 1120 nM

## c1ccc(CCn2nnnc2C(c2cccs2)N2CCN(Cc3ccc4c(c3)OCO4)CC2)cc1 (stereo not given)
  IC50: 1340 nM

## Cc1ccc(NC(=O)CCN2CCc3ccccc3C2)cc1
  IC50: 8270 nM

## O=C(CCN1CCC(c2ccccc2)C1)c1cccs1 (stereo not given)
  IC50: 835 nM

## O=C(C(=O)N1CCc2ccccc2C1)c1cn(CC(=O)N2CCCCC2)c2ccccc12
  IC50: 2690 nM

## CC(=NCCc1ccccc1)C1CCOC1=O (stereo not given)
  IC50: 2840 nM

## CCOC(=O)C(NC(=O)CC)(N1CCc2ccccc2C1)C(F)(F)F (stereo not given)
  IC50: 611 nM

## Cc1cc(N(C)C)nc(Nc2ccccc2)n1
  IC50: 210 nM

## OCCNc1nc(Nc2cccc(O)c2)nc2ccccc12
  IC50: 244 nM

## O=C(Nc1ccccc1)Nc1ccncc1
  IC50: 2740 nM
